Reference: BigSolDB 2.1

O=C(/C=C/C=C/c1ccc2c(c1)OCO2)N1CCCCC1
solubility (mole fraction)
Conditions	298.2 K	303.2 K	308.2 K	313.2 K	318.2 K
in DMSO	0.0287	0.0303	0.0321	0.0339	0.0359
in ethanol	0.00899	0.01	0.011	0.012	0.0134
in ethyl acetate	0.00985	0.011	0.0123	0.0137	0.0154
in ethylene glycol	0.00386	0.00444	0.00515	0.00597	0.0067
in isopropanol	0.0123	0.0136	0.0149	0.0164	0.0182
in methanol	0.00527	0.00584	0.00648	0.00719	0.00791
in n-butanol	0.0156	0.0169	0.0183	0.0201	0.022
in propylene glycol	0.01	0.0111	0.0122	0.0134	0.0147
in sec-butanol	0.0158	0.017	0.0187	0.0206	0.0225
in transcutol	0.0797	0.0826	0.0852	0.0883	0.0917
in water	1.07e-05	1.18e-05	1.29e-05	1.41e-05	1.52e-05

Conditions	solubility (mole fraction)
in PEG-400, 298.2 K	0.0518
in PEG-400, 303.2 K	0.0584
in PEG-400, 308.2 K	0.0652
in PEG-400, 313.2 K	0.0718
in PEG-400, 318.2 K	0.0788
